In brackets after ≈: the same amount, converted by molar mass. Some results are limits rather than exact numbers.

Type in all cases: functional
One experiment has as its system Escherichia coli. The experiment can be described thus: Antibacterial activity against Escherichia coli ATCC 25922.
The next experiment relates to Pseudomonas aeruginosa. The experiment can be described thus: Antibacterial activity against Pseudomonas aeruginosa ATCC 27853.
In the next experiment the test system is Klebsiella pneumoniae. As to the kind of experiment: Antibacterial activity against Klebsiella pneumoniae A-651.

As a reminder, the MIC is the smallest concentration in the dilution series that meets the test's criterion for growth inhibition. For the compound `CCOc1ccc(-c2cc3n(c2)C(=O)N(CC[C@](C)(C(=O)NO)S(C)(=O)=O)C3)c(Cl)c1`, the MIC was no more than 0.063 µg/mL against Escherichia coli, 4 µg/mL (≈ 8.51 µM) with Pseudomonas aeruginosa and 0.125 µg/mL (≈ 0.266 µM) in the experiment with Klebsiella pneumoniae.
Consider `C[C@@](CCN1Cc2cc(C#Cc3ccc(COC(N)=O)cc3)cn2C1=O)(C(=O)NO)S(C)(=O)=O`, for which the MIC against Escherichia coli was no more than 0.063 µg/mL; in the experiment with Pseudomonas aeruginosa it was 0.5 µg/mL (≈ 1.02 µM); against Klebsiella pneumoniae, 0.25 µg/mL (≈ 0.512 µM).
For the compound `C[C@@](CCN1Cc2cc(C#Cc3ccc(OCCO)cc3)cn2C1=O)(C(=O)NO)S(C)(=O)=O`, the MIC in the experiment with Escherichia coli was 0.125 µg/mL (≈ 0.263 µM); in the experiment with Pseudomonas aeruginosa, 1 µg/mL (≈ 2.1 µM); in the experiment on Klebsiella pneumoniae, 0.5 µg/mL (≈ 1.05 µM).
As to `COc1ccc(-c2cc3n(c2)C(=O)N(CC[C@](C)(C(=O)NO)S(C)(=O)=O)C3)c(F)c1`, the MIC with Escherichia coli is 0.125 µg/mL (≈ 0.284 µM); with Pseudomonas aeruginosa, 1 µg/mL (≈ 2.28 µM); against Klebsiella pneumoniae, no more than 0.063 µg/mL.
In the case of `C[C@@](CCN1Cc2cc(C#Cc3ccc(C4(CN)CC4)cc3)cn2C1=O)(C(=O)NO)S(C)(=O)=O.O=CO`, the results for the MIC against Escherichia coli, in the experiment on Pseudomonas aeruginosa and against Klebsiella pneumoniae were 8 µg/mL, 4 µg/mL and 8 µg/mL, respectively.
Turning to `C[C@@](CCN1Cc2cc(C#CC#C[C@@H]3C[C@@]3(F)CO)cn2C1=O)(C(=O)NO)S(C)(=O)=O`, the results for the MIC against Escherichia coli, against Pseudomonas aeruginosa and against Klebsiella pneumoniae were 0.25 µg/mL (≈ 0.554 µM), 0.5 µg/mL (≈ 1.11 µM) and 0.25 µg/mL (≈ 0.554 µM), respectively.

(Values after ChEMBL document CHEMBL3751771, “LpxC Inhibitors as Effective Therapy Against Multidrug Resistant Bacterial Infections” (2015).)
